Assay results reported in publication PMC2962730 (Journal of neurochemistry, 2010).
Numbering of substitutions follows the chain as printed. Entries after “also recorded” stand apart in the source; their conditions may differ.

Columns and labels:
hVAChT Y60W = biological target: T1, hVAChT Y60W (Homo sapiens, UniProt Q16572, Y60W); assay: [3H]ACh transport; type: biochemical
T1 sequence (Q16572 1-532 Y60W): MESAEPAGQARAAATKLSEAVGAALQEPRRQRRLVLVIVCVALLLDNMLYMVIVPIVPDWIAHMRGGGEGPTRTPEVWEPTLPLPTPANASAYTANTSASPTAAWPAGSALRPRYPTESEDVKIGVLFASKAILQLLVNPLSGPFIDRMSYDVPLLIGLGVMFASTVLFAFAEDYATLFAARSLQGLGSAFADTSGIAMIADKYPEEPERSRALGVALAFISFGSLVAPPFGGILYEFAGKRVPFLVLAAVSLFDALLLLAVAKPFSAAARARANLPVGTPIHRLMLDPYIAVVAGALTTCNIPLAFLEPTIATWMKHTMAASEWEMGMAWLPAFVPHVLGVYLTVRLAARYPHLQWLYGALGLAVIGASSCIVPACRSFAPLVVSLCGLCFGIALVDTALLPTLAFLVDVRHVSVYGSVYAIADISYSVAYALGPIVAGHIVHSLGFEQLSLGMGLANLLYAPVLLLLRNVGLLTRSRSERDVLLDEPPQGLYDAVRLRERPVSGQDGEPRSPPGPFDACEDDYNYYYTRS

VAChT C391Y [1] = details: ref Zhu et al. (2001); cited from earlier work
hVAChT A321F [2] = biological target: T2, hVAChT A321F (Homo sapiens, UniProt Q16572, A321F); assay: [3H]ACh transport; type: biochemical
T2 sequence (Q16572 1-532 A321F): T1 sequence (Q16572 1-532 Y60W) with W60Y, A321F

VAChT C391Y [3] = details: ref Zhu et al. (2001); cited from earlier work; remark: listed apart in the source
hVAChT A321F [4] = biological target: T2, hVAChT A321F; assay: [3H]vesamicol saturation binding; details: pH 7.4
hVAChT Y60A = biological target: T3, hVAChT Y60A (Homo sapiens, UniProt Q16572, Y60A); assay: [3H]vesamicol saturation binding; details: pH 7.4
T3 sequence (Q16572 1-532 Y60A): T1 sequence (Q16572 1-532 Y60W) with W60A

hVAChT W331A = biological target: T4, hVAChT W331A (Homo sapiens, UniProt Q16572, W331A); assay: [3H]vesamicol saturation binding; details: pH 7.4
T4 sequence (Q16572 1-532 W331A): T1 sequence (Q16572 1-532 Y60W) with W60Y, W331A

[5] = test system: rat VAChT (rVAChT) W331 mutants; details: mutations of W331 in rVAChT; ref Ojeda et al. 2004; cited from earlier work
[6] = read-out: KM, Michaelis-Menten constant for ACh transport, pH 7.4

Compound | Vmax/Bmax, ACh transport normalized to Bmax (hVAChT Y60W; pH 7.4) [min⁻¹] | Km (hVAChT Y60W; [6]) [µM] | higher KM value for transport (VAChT C391Y [1]) [fold] | Vmax/Bmax, ACh transport normalized to Bmax (hVAChT A321F [2]; pH 7.4) [min⁻¹] | Km (hVAChT A321F [2]; [6]) [µM] | vesamicol binding (VAChT C391Y [3]) | Bmax, maximal specific [3H]vesamicol binding (VAChT expression level) (hVAChT A321F [4]) [pmol/mg] | Bmax, maximal specific [3H]vesamicol binding (VAChT expression level) (hVAChT Y60A) [pmol/mg] | Bmax, maximal specific [3H]vesamicol binding (VAChT expression level) (hVAChT W331A) [pmol/mg] | effect on vesamicol affinity [5]
CC(=O)OCC[N+](C)(C)C [ACh, acetylcholine] | 7.9 ± 0.8 | 920 ± 170 | 2.6 | 6.0 ± 0.5 | 350 ± 100 |  |  |  |  | 
O[C@@H]1CCCC[C@H]1N1CCC(c2ccccc2)CC1 (racemic) [vesamicol, ( )-trans-2-(4-phenylpiperidino)cyclohexanol] |  |  |  |  |  | does not bind vesamicol | 21 ± 1 | 31 ± 2 | 37 ± 2 | no loss in affinity for vesamicol; also recorded: without affecting vesamicol affinity
